row,Structure (SMILES),melting point
1,"COc1cncc(C#Cc2cnn3c(C(F)(F)F)cc(-c4ccc(C(F)(F)F)cc4)nc23)c1 [Example 57, 3-(5-Methoxy-pyridin-3-ylethynyl)-7-trifluoromethyl-5-(4-trifluoromethyl-phenyl)-pyrazolo[1,5-a]pyrimidine]",232 to 234 °C
2,"Oc1cncc(C#Cc2cnn3c(C(F)(F)F)cc(-c4ccc(C(F)(F)F)cc4)nc23)c1 [Example 58, 5-[7-Trifluoromethyl-5-(4-trifluoromethyl-phenyl)-pyrazolo[1,5-a]pyrimidin-3-ylethynyl]-pyridin-3-ol]",258 to 260 °C
3,"Cc1ccc(C#Cc2cnn3c(C(F)F)cc(-c4ccc(C(F)(F)F)cc4)nc23)cc1S(N)(=O)=O [Example 60, 5-[7-Difluoromethyl-5-(4-trifluoromethyl-phenyl)-pyrazolo[1,5-a]pyrimidin-3-ylethynyl]-2-methyl-benzenesulfonamide]",265 to 267 °C
4,"Cc1ccc(C#Cc2cnn3c(C(F)F)cc(-c4ccc(C(F)(F)F)cc4)nc23)cc1S(=O)(=O)NCCO [Example 61, 5-[7-Difluoromethyl-5-(4-trifluoromethyl-phenyl)-pyrazolo[1,5-a]pyrimidin-3-ylethynyl]-N-(2-hydroxy-ethyl)-2-methyl-benzenesulfonamide]",184 to 186 °C
5,"FC(F)(F)c1ccc(-c2cc(C(F)(F)F)n3ncc(C#Cc4ccccc4)c3n2)cc1 [Example 62, 3-Phenylethynyl-7-trifluoromethyl-5-(4-trifluoromethyl-phenyl)-pyrazolo[1,5-a]pyrimidine]",144 to 145 °C

# Now from value to molecule:
row,melting point,Structure (SMILES)
1,225 to 228 °C,"NS(=O)(=O)c1ccc(C#Cc2cnn3c(C4CC4)cc(-c4ccc(Cl)cc4)nc23)cc1 [Example 63, 4-[5-(4-Chloro-phenyl)-7-cyclopropyl-pyrazolo[1,5-a]pyrimidin-3-ylethynyl]-benzenesulfonamide]"
2,204 to 207 °C,"CC(C)(CO)NS(=O)(=O)c1cnc(C#Cc2cnn3c(C4CC4)cc(-c4ccc(Cl)cc4)nc23)s1 [Example 64, 2-[5-(4-Chloro-phenyl)-7-cyclopropyl-pyrazolo[1,5-a]pyrimidin-3-ylethynyl]-thiazole-5-sulfonic acid (2-hydroxy-1,1-dimethyl-ethyl)-amide]"
3,202 to 204 °C,"CC(C)(CO)NS(=O)(=O)c1cccc(C#Cc2cnn3c(C4CC4)cc(-c4ccc(Cl)cc4)nc23)c1 [Example 65, 3-[5-(4-Chloro-phenyl)-7-cyclopropyl-pyrazolo[1,5-a]pyrimidin-3-ylethynyl]-N-(2-hydroxy-1,1-dimethyl-ethyl)-benzenesulfonamide]"
4,252 to 254 °C,"NS(=O)(=O)c1cncc(C#Cc2cnn3c(C4CC4)cc(-c4ccc(Cl)cc4)nc23)c1 [Example 66, 5-[5-(4-Chloro-phenyl)-7-cyclopropyl-pyrazolo[1,5-a]pyrimidin-3-ylethynyl]-pyridine-3-sulfonic acid amide]"
5,230 to 231 °C,"CC(C)(CO)NS(=O)(=O)c1cncc(C#Cc2cnn3c(C4CC4)cc(-c4ccc(Cl)cc4)nc23)c1 [Example 67, 5-[5-(4-Chloro-phenyl)-7-cyclopropyl-pyrazolo[1,5-a]pyrimidin-3-ylethynyl]-pyridine-3-sulfonic acid (2-hydroxy-1,1-dimethyl-ethyl)-amide]"
6,204 to 206 °C,"CC(CO)(CO)NS(=O)(=O)c1cncc(C#Cc2cnn3c(C4CC4)cc(-c4ccc(Cl)cc4)nc23)c1 [Example 68, 5-[5-(4-Chloro-phenyl)-7-cyclopropyl-pyrazolo[1,5-a]pyrimidin-3-ylethynyl]-pyridine-3-sulfonic acid (2-hydroxy-1-hydroxymethyl-1-methyl-ethyl)-amide]"
7,253 to 256 °C,"COc1ccc(C#Cc2cnn3c(C4CC4)cc(-c4ccc(Cl)cc4)nc23)cc1S(=O)(=O)NC(C)(C)CO [Example 69, 5-[5-(4-Chloro-phenyl)-7-cyclopropyl-pyrazolo[1,5-a]pyrimidin-3-ylethynyl]-N-(2-hydroxy-1,1-dimethyl-ethyl)-2-methoxy-benzenesulfonamide]"

# Source: patent US8063048B2, “Acetylenyl-pyrazolo-pyrimidine derivatives” (Hoffmann-La Roche Inc., priority 2005, dated 2011)
